# Data from EPA's ToxValDB 9.5.
# Several values for one entry are separate records, joined by “and”; a condition that tells them apart may be missing. Equal entries are not always repeated.
# Legend:
# Rattus norvegicus [1] = assay: LC50; settings: acute; oral; gavage
# Rattus norvegicus [2] = settings: for LD50 / LC50: acute
# Oryctolagus sp. = settings: for LD50: acute
# Mus musculus [3] = settings: repeat dose other; oral
# Coturnix japonica = settings: repeat dose other; oral
# Rattus norvegicus [4] = settings: chronic, oral, diet, M, Wistar, immunological
# Nycticorax nycticorax = settings: oral
# Megascops sp. = settings: oral
# Anas platyrhynchos = settings: oral
# Mus musculus [5] = assay: LD0; higher = less toxic; settings: acute; oral
# Mus musculus [6] = settings: acute
# Gallus sp. = settings: developmental; duration: 5 days; injection; White Leghorn
# Rattus norvegicus [7] = assay: LC0; higher = less toxic; settings: acute; inhalation
# Rattus norvegicus [8] = assay: LD0; higher = less toxic; settings: acute, oral, gavage
# Cavia porcellus = settings: acute; Inhalation; Guinea Pig
# Cavia sp. = settings: acute; Inhalation; Harley
# [9] = short-term, duration: 28 days, oral, diet, Sprague-Dawley
# [10] = subchronic, duration: 90 days, oral, diet, Sprague-Dawley
# [11] = reproduction developmental, duration: 12 days, oral, gavage, F, New Zealand
# [12] = chronic, duration: 24 months, oral, diet, Sprague-Dawley
# [13] = reproduction developmental, oral, diet, Sprague-Dawley, generation: F0
# [14] = reproduction developmental, oral, diet, Sprague-Dawley, generation: F1
# [15] = reproduction developmental, oral, diet, Sprague-Dawley, generation: F2
# [16] = subchronic, duration: 8 weeks, oral, diet, Sprague-Dawley
# [17] = subchronic, duration: 90 days, oral, diet
# [18] = subchronic, duration: 3 months, oral, diet
compound,measurement,setting,value
"O=C1c2c(Br)c(Br)c(Br)c(Br)c2C(=O)N1CCN1C(=O)c2c(Br)c(Br)c(Br)c(Br)c2C1=O [1,2-Bis(tetrabromophthalimido)ethane]",LD50,Rattus norvegicus [1],> 7500 mg/kg
same,NOAEL,"Rattus norvegicus [2]; developmental, duration: 10 days, oral, gavage, Sprague-Dawley",≥ 1000 mg/kg-day
same,NOAEL,"Rattus norvegicus [2]; reproduction developmental, duration: 10 days, oral, gavage, F, Sprague-Dawley",≥ 1000 mg/kg-day
same,LOAEL (% diet),Rattus norvegicus [2]; [9],> 1
same,NOAEL (% diet),Rattus norvegicus [2]; [9],≥ 1
same,LOAEL,Rattus norvegicus [2]; [10],≥ 1000 mg/kg-day
same,NOAEL,Rattus norvegicus [2]; [10],≥ 1000 mg/kg-day
same,NOAEL (% diet),Rattus norvegicus [2]; [10],1
same,LOAEL,Oryctolagus sp.; [11],< 1000 mg/kg-day
same,NOAEL,Oryctolagus sp.; [11],≥ 1000 mg/kg-day
CCC[CH2][Sn]([CH2]CCC)([CH2]CCC)[O][Sn]([CH2]CCC)([CH2]CCC)[CH2]CCC [Bis(tributyltin)oxide],LOAEL,Mus musculus [3],35 mg/kg-day
same,NOAEL,Mus musculus [3],23.4 mg/kg-day
same,LOAEL,Coturnix japonica,16.9 mg/kg-day
same,NOAEL,Coturnix japonica,6.8 mg/kg-day
same,NOAEL,Rattus norvegicus [4]; duration: 6 months,0.025 mg/kg-day
same,NOAEL,Rattus norvegicus [4]; duration: 18 months,0.025 mg/kg-day
C[Se]CCC(N)C(=O)O (centres undefined) [Selenomethionine],NOAEL,Nycticorax nycticorax,1.8 mg/kg-day
same,LOAEL,Megascops sp.,1.5 mg/kg-day
same,NOAEL,Megascops sp.,0.44 mg/kg-day
same,LOAEL,Anas platyrhynchos,0.8 mg/kg-day
same,NOAEL,Anas platyrhynchos,0.4 mg/kg-day
O=C(Nc1ccc(Cl)cc1)Nc1ccc(Cl)c(Cl)c1 [Triclocarban],LD0,Mus musculus [5],> 5000 mg/kg
same,LD50,"Mus musculus [6]; injection, Intraperitoneal",2100 mg/kg
same,LD50,"Rattus norvegicus [2]; oral, gavage, Sprague-Dawley",> 50100 mg/kg
same,LOAEL,Rattus norvegicus [2]; [12],75 mg/kg-day
same,NOAEL,Rattus norvegicus [2]; [12],25 mg/kg-day
same,NOAEL,"Rattus norvegicus [2]; developmental, oral, diet, Sprague-Dawley",> 3000 ppm
same,NOAEL,"Rattus norvegicus [2]; reproduction developmental, oral, diet, F, Sprague-Dawley",> 3000 ppm
same,NOAEL,Rattus norvegicus [2]; [13],3000 ppm
same,NOAEL,Rattus norvegicus [2]; [14],1000 ppm
same,NOAEL,Rattus norvegicus [2]; [15],3000 ppm
same,LOAEL,Rattus norvegicus [2]; [16],250 mg/kg-day
same,NOAEL,Rattus norvegicus [2]; [16],75 mg/kg-day
same,LD50,"Oryctolagus sp.; dermal, occlusive, New Zealand",> 10000 mg/kg
CCCCCCCCCc1ccc(OP(Oc2ccc(CCCCCCCCC)cc2)Oc2ccc(CCCCCCCCC)cc2)cc1 [Nonylphenolphosphite(3:1)],LD50,"Mus musculus [6]; oral, gavage",> 10000 mg/kg
same,NOAEL,Gallus sp.,5 mg
same,LD50,"Rattus norvegicus [2]; dermal, semiocclusive, RAI f1",> 2000 mg/kg
same,LD50,"Rattus norvegicus [2]; injection, Intraperitoneal, RAI f1",> 1000 mg/kg
same,NOAEL,"Rattus norvegicus [2]; developmental, duration: 4 weeks, oral, gavage, Sprague-Dawley",1000 mg/kg-day
same,NOAEL,"Rattus norvegicus [2]; reproduction developmental, duration: 2 years, oral, diet, generation: F1",3300 ppm
same,NOAEL,"Rattus norvegicus [2]; reproduction developmental, duration: 4 weeks, oral, gavage, F, Sprague-Dawley",1000 mg/kg-day
same,NOAEL,"Rattus norvegicus [2]; reproduction developmental, duration: 4 weeks, oral, gavage, M, Sprague-Dawley",200 mg/kg-day
same,NOAEL,"Rattus norvegicus [2]; reproduction developmental, duration: 4 weeks, oral, gavage, Sprague-Dawley, generation: F0",200 mg/kg-day
same,NOAEL,"Rattus norvegicus [2]; reproduction developmental, duration: 4 weeks, oral, gavage, Sprague-Dawley, generation: F1",200 mg/kg-day
same,NOAEL (% diet),"Rattus norvegicus [2]; subchronic, duration: 12 weeks, oral, diet",1
same,LOAEL (% diet),Rattus norvegicus [2]; [17],5
same,NOAEL (% diet),Rattus norvegicus [2]; [17],1
same,LD50,"Oryctolagus sp.; dermal, semiocclusive, New Zealand",> 2000 mg/kg
"FC(F)(F)C(F)(Cl)Cl [1,1-Dichlorotetrafluoroethane]",NOAEL,"Rattus norvegicus [2]; short-term, duration: 2 weeks, inhalation, M, Crl:CDABR",289000 mg/m3
same,LC0,Rattus norvegicus [7],> 1.07e+06 mg/m3
S=C(SN1CCOCC1)N1CCOCC1 [4-((Morpholinothio)thioxomethyl)morpholine],LD0,Rattus norvegicus [8],1000 mg/kg
same,LD0,Rattus norvegicus [8]; Sprague-Dawley,2700 mg/kg
same,LD50,"Mus musculus [6]; oral, gavage, CD1",7000 mg/kg and 9000 mg/kg and 11000 mg/kg
same,LD50,"Rattus norvegicus [2]; oral, gavage",5110 mg/kg
same,LD50,"Rattus norvegicus [2]; oral, gavage, Sprague-Dawley",5000 mg/kg and 5200 mg/kg
same,NOAEL,"Rattus norvegicus [2]; reproduction developmental, duration: 12 weeks, oral, diet, Sprague-Dawley, generation: F0",200 ppm
same,NOAEL,"Rattus norvegicus [2]; reproduction developmental, duration: 12 weeks, oral, diet, Sprague-Dawley, generation: F1",600 ppm
same,NOAEL,Rattus norvegicus [2]; [13],600 ppm
same,LD50,"Oryctolagus sp.; dermal, semiocclusive",> 10000 mg/kg
same,LC0,Rattus norvegicus [7],164 mg/L
CCC(C)(CCC(C)C)C(=O)O (centres undefined) [Neodecanoic acid],LD50,"Mus musculus [6]; Inhalation, Swiss",> 511 mg/m3
same,LC50,"Mus musculus [6]; Inhalation, Swiss albino",> 511 mg/m3
same,LC50,"Mus musculus [6]; inhalation, Swiss",> 3 mg/L
same,LD50,"Mus musculus [6]; inhalation, Swiss",> 3 mg/L
same,LD50,Cavia porcellus,> 511 mg/m3
same,LC50,Cavia sp.,> 511 mg/m3
same,LD50,Cavia sp.,> 511 mg/m3
same,LC50,"Rattus norvegicus [2]; Inhalation, Wistar",> 511 mg/m3
same,LD50,"Rattus norvegicus [2]; Inhalation, Wistar",> 511 mg/m3
same,LC50,"Rattus norvegicus [2]; inhalation, Wistar",> 3 mg/L
same,LD50,"Rattus norvegicus [2]; inhalation, Wistar",> 3 mg/L
same,NOAEL,Rattus norvegicus [2]; [13],1500 ppm
same,NOAEL,Rattus norvegicus [2]; [14],1500 ppm
same,NOAEL,Rattus norvegicus [2]; [15],1500 ppm
same,LOAEL,Rattus norvegicus [2]; [18],144 mg/kg-day
same,NOAEL,Rattus norvegicus [2]; [18],48 mg/kg-day
same,LD50,Oryctolagus sp.; dermal,> 3160 mg/kg
same,LD50,"Oryctolagus sp.; dermal, occlusive",> 3160 mg/kg
same,NOAEL,"Oryctolagus sp.; repeat dose other, dermal, M",2280 mg/kg-day
